# Legend:
# Type in all cases: cell-based
# [1] = system: Staphylococcus aureus (g+) LMG 8064; test: Poison Plate Assay, bacteria on Tryptose Agar; conditions: ppm total active ingredient, growth evaluated after five days, 27° C.
# Protocol: (§1) Experiment 1: Poison Plate Assay
# (§2) • pyrimethanil (I-a) • cyprodinil (I-b) • mepanipyrim (I-c) Name of Component (II): • 1-hydroxy-2-pyridinone (II-a) • ciclopirox (II-b) • ciclopirox olamine (II-c) • piroctone (II-d) • piroctone olamine (II-e) • rilopirox (II-f) • pyrion disulfide (II-g) • sodium pyrithione (II-h) • zinc pyrithione (II-i) Test Models: • Fungi: to each well of a 24-well microtiter plate, 1000 μl of Glucose Agar (GA: 10 g glucose, 1.5 g K2HPO4, 2 g KH2PO4, 1 g (NH4)2SO4, 0.5 g MgSO4 and 12.5 g agar in 1 liter deionised water) containing the appropriate combination of the test compounds in one of the concentrations of a dose series is added. The nutrient medium is inoculated with the test fungi by adding a spore/mycelium suspension (10 μl) or a small piece of agar from the margin of an actively growing colony and incubated under dark at 27° C. with 70% relative humidity. […] The nutrient medium is inoculated by adding 10 μl of an actively growing liquid culture of the test bacteria in tryptose broth (without agar), and incubated under dark at 27° C. with 70% relative humidity. The growth is evaluated after five days. Concentrations: • Synergy experiment with hydroxypyridone: • MIC values for single compounds were collected from previous screening experiments. These MIC values were used as a guide in determining of the most suitable test dose ranges. For the combination experiments, two overlapping dose series were used, in order to maximise the chance of the MIC values falling within the test concentration range for all combinations: • Series 1: 50.00-37.50-28.13-21.09-15.82-11.87-8.90-6.67-5.01-3.75-2.82-2.11 ppm • Series 2: 25.00-18.75-14.06-10.55-7.91-5.93-4.45-3.34-2.50-1.88-1.41-1.06 ppm • Synergy experiments with bispyrithione and sodium pyrithione: 10.00-7.50-5.63-4.22-3.16-2.37-1.78-1.33-1.00-0.75-0.56-0.42 ppm
# (§3) (2000) “Measuring synergy” cosmetics & Toiletries 115(11): 59-62; and Lada, A., A. N. Petrocci, H. A. Green, and J. J. Merianos (1977) “Antimicrobial composition” U.S. Pat. No. 4,061,750, 3 pp.): […]
# [2] = system: Chaetomium globosum ATCC6205; test: Poison Plate Assay, fungi on Glucose Agar; conditions: % (I-a) + % (II-g), ppm total active ingredient, growth evaluated after two weeks, 27° C.
# Protocol: as §1, §2, §3
# [3] = system: Ulocladium atrum IMI214699a; test: Poison Plate Assay, fungi on Glucose Agar; conditions: % (I-a) + % (II-h), ppm total active ingredient, growth evaluated after two weeks, 27° C.
# Protocol: as §1, §2, §3
smiles,measurement,setting,value
"Cc1cc(C)nc(Nc2ccccc2)n1 [(I-a) + (II-g) 100 + 0, pyrimethanil]",MIC-values (minimum inhibitory concentration) in ppm,[1]; % (I-a) + % (II-g),3.16 ppm
same,MIC-values (minimum inhibitory concentration) in ppm,[2],1.78 ppm
"Cc1cc(C)nc(Nc2ccccc2)n1 [(I-a) + (II-h) 100 + 0, pyrimethanil]",MIC-values (minimum inhibitory concentration) in ppm,[1]; % (I-a) + % (II-h),4.22 ppm
same,MIC-values (minimum inhibitory concentration) in ppm,[3],3.16 ppm
"[O-][n+]1ccccc1SSc1cccc[n+]1[O-] [(I-a) + (II-g) 0 + 100, pyrion disulfide]",MIC,"[1]; LMG8064, 120 h, % (I-a) + % (II-g), read-out: MIC-values (minimum inhibitory concentration) in ppm",213 µg/mL
same,MIC,"[2]; ATCC6205, 336 h, read-out: MIC-values (minimum inhibitory concentration) in ppm",40 µg/mL

# From patent publication US8575187B2, “Combinations of anilinopyrimidines and pyrion compounds” (Janssen Pharmaceutica, NV, priority 2008, dated 2013)
